We go through 15 molecules from PubChem BioAssay (NCI).

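Cells were grown in 96-well plates and exposed to each compound for 48 hours at five concentrations; endpoints were interpolated linearly between bracketing concentrations, or set to the highest concentration if not reached. GI50 marks 50% less growth. TGI denotes the concentration required for complete inhibition of growth.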

One may read the TGI as the concentration at which net growth stops. Higher therefore signals lower sensitivity of the cells. What is called GI50 is the concentration at which growth is held to half of that of the control.

Some test systems named below: SF-268 CNS; CAKI-1 renal; COLO 205 colon; UACC-257 melanoma; SNB-75 CNS; MDA-N; IGROV1 ovarian; RPMI-8226 leukemia; OVCAR-8 ovarian; PC-3 prostate; UACC-62 melanoma; SK-MEL-28 melanoma; LOX IMVI melanoma.
Assay in all cases: DTP human tumour cell line panel, 48 h

In the case of `CCc1c(Cc2cccc3ccccc23)n2c(nc1=O)SCC2OCCO` (stereo unspecified), the concentration for total growth inhibition (TGI) in the test on SF-268 CNS, with CAKI-1 renal, in the test on COLO 205 colon, in the test on UACC-257 melanoma, with SNB-75 CNS and in the test with MDA-N was above 100 µM throughout. Also, the TGI is above 100 µM in the test with IGROV1 ovarian; 94.4 µM in the test on RPMI-8226 leukemia; above 100 µM with OVCAR-8 ovarian; above 100 µM in the test on PC-3 prostate; above 100 µM in the test on UACC-62 melanoma; above 100 µM in the test with SK-MEL-28 melanoma. Further, the TGI with LOX IMVI melanoma is above 100 µM.
Take `N=C1N(S(=O)(=O)c2ccccc2)[C@@H](Cc2ccccc2)[C@H](c2ccccc2)C1(c1ccccc1)c1ccccc1`: the concentration for total growth inhibition (TGI) in the test on SF-268 CNS, with CAKI-1 renal, with COLO 205 colon, in the test with UACC-257 melanoma, in the test with SNB-75 CNS and with MDA-N was above 100 µM each time. In addition, the TGI in the test on IGROV1 ovarian, in the test with RPMI-8226 leukemia, in the test with OVCAR-8 ovarian, in the test with PC-3 prostate, with UACC-62 melanoma and in the test with SK-MEL-28 melanoma was above 100 µM each time. In addition, the TGI in the test with LOX IMVI melanoma is above 100 µM.
`CCOC(=O)C1(C(=O)OCC)[C@H](c2ccccc2)C2=NO[C@@H]3CCC[C@H]1[C@H]23`: the concentration for total growth inhibition (TGI) in the test with SF-268 CNS, in the test on CAKI-1 renal, in the test on COLO 205 colon, in the test on UACC-257 melanoma, in the test on SNB-75 CNS and with MDA-N was above 100 µM throughout. For the same molecule, the total growth inhibition concentration (TGI) with IGROV1 ovarian, in the test on RPMI-8226 leukemia, with OVCAR-8 ovarian, in the test with PC-3 prostate, in the test on UACC-62 melanoma and in the test with SK-MEL-28 melanoma was above 100 µM in each case. In the test with LOX IMVI melanoma, this molecule showed a concentration for total growth inhibition (TGI) above 100 µM.
`Cc1ccncc1.F[B-](F)(F)F.[Pt+2].c1ccc(-c2cccc(-c3ccccn3)n2)nc1`: the concentration for total growth inhibition (TGI) was above 60 µM with SF-268 CNS; above 62.1 µM in the test on CAKI-1 renal; 20.8 µM with COLO 205 colon; 44.5 µM in the test with UACC-257 melanoma; above 89.7 µM with SNB-75 CNS; above 100 µM with MDA-N. The total growth inhibition concentration (TGI) with IGROV1 ovarian was above 30.6 µM; in the test on RPMI-8226 leukemia it was 32.9 µM; in the test with OVCAR-8 ovarian it was 31 µM; with PC-3 prostate it was above 100 µM; in the test with UACC-62 melanoma, 36.5 µM; with SK-MEL-28 melanoma it was above 100 µM. This molecule had a total growth inhibition concentration (TGI) in the test with LOX IMVI melanoma above 88.4 µM. The GI50 with LOX IMVI melanoma is 1.28 µM.
For the molecule `CCOC(=O)c1c(CN2CCNCC2)nc2ccccc2c1-c1ccccc1`, the TGI is 27.8 µM with SF-268 CNS; 25.7 µM in the test on CAKI-1 renal; 35.8 µM in the test on COLO 205 colon; 15.7 µM in the test on UACC-257 melanoma; 20.5 µM with SNB-75 CNS; 23.3 µM in the test with MDA-N. The TGI was found to be 29.2 µM with IGROV1 ovarian; 32.5 µM in the test with RPMI-8226 leukemia; 30.6 µM with OVCAR-8 ovarian; 27.3 µM in the test on PC-3 prostate; 28.2 µM in the test on UACC-62 melanoma; 25.1 µM in the test with SK-MEL-28 melanoma. This molecule also showed a total growth inhibition concentration (TGI) in the test with LOX IMVI melanoma of 31.6 µM.
Turning to `CCOP(=O)(OCC)C(Nc1cccc(F)c1)c1ccccc1` (stereo unspecified), the TGI in the test on SF-268 CNS, in the test with CAKI-1 renal, in the test with COLO 205 colon, in the test with UACC-257 melanoma, with SNB-75 CNS and in the test with MDA-N was above 100 µM throughout. Besides, the TGI with IGROV1 ovarian, with RPMI-8226 leukemia, in the test on OVCAR-8 ovarian, with PC-3 prostate, in the test on UACC-62 melanoma and with SK-MEL-28 melanoma was above 100 µM each time. Besides, the TGI in the test with LOX IMVI melanoma was above 100 µM.
For `Nc1ncnc2c1ncn2C1CCC(COS(N)(=O)=O)C1` (stereo unspecified), the TGI with SF-268 CNS, in the test with CAKI-1 renal, in the test with COLO 205 colon, in the test with UACC-257 melanoma, with SNB-75 CNS and in the test on MDA-N was above 100 µM throughout. Also, the concentration for total growth inhibition (TGI) with IGROV1 ovarian, in the test on RPMI-8226 leukemia, with OVCAR-8 ovarian, with PC-3 prostate, with UACC-62 melanoma and with SK-MEL-28 melanoma was above 100 µM each time. In the test with LOX IMVI melanoma, this molecule yielded a concentration for total growth inhibition (TGI) above 100 µM.
For the molecule `O=C1NC(=O)/C(=C/c2ccc(S(=O)(=O)N/N=C/c3ccc(Cl)cc3)cc2)N1`, the concentration for total growth inhibition (TGI) in the test with SF-268 CNS, with CAKI-1 renal, with COLO 205 colon, in the test on UACC-257 melanoma, with SNB-75 CNS and with MDA-N was above 100 µM each time. Moreover, the TGI with IGROV1 ovarian, in the test with RPMI-8226 leukemia, in the test with OVCAR-8 ovarian, in the test with PC-3 prostate, in the test on UACC-62 melanoma and with SK-MEL-28 melanoma was above 100 µM throughout. The TGI with LOX IMVI melanoma is above 100 µM.
In the case of `COC(=O)[C@H]1[C@@H](C(C)C)O[C@@H](C(C)C)O[C@H]1C(F)(F)F`, the total growth inhibition concentration (TGI) in the test on SF-268 CNS, in the test with CAKI-1 renal, with COLO 205 colon, in the test on UACC-257 melanoma, in the test with SNB-75 CNS and in the test on MDA-N was above 100 µM throughout. Further, the TGI with IGROV1 ovarian, with RPMI-8226 leukemia, with OVCAR-8 ovarian, with PC-3 prostate, with UACC-62 melanoma and in the test with SK-MEL-28 melanoma was above 100 µM throughout. This molecule came in with a concentration for total growth inhibition (TGI) with LOX IMVI melanoma above 100 µM.
For `Cc1ccc(C(=O)O)c(CC2Cc3c(C)cccc3C2=O)c1` (stereo unspecified), the concentration for total growth inhibition (TGI) in the test on SF-268 CNS, in the test on CAKI-1 renal, in the test with COLO 205 colon, in the test on UACC-257 melanoma, in the test with SNB-75 CNS and in the test with MDA-N was above 100 µM throughout. Moreover, the concentration for total growth inhibition (TGI) in the test with IGROV1 ovarian, in the test on RPMI-8226 leukemia, with OVCAR-8 ovarian, in the test on PC-3 prostate, in the test on UACC-62 melanoma and in the test on SK-MEL-28 melanoma was above 100 µM in each case. In the test with LOX IMVI melanoma, the TGI is above 100 µM.
As to `C(=C\c1cccc(/C=C/c2ccccn2)n1)/c1ccccn1`, the TGI with SF-268 CNS is 37.2 µM; in the test with CAKI-1 renal, above 100 µM; in the test with COLO 205 colon, above 100 µM; in the test with UACC-257 melanoma it was above 100 µM; in the test with SNB-75 CNS, above 100 µM; with MDA-N, above 100 µM. For the same molecule, the total growth inhibition concentration (TGI) in the test with IGROV1 ovarian is above 100 µM; in the test with RPMI-8226 leukemia it was above 100 µM; with OVCAR-8 ovarian it was above 100 µM; in the test with PC-3 prostate it was above 100 µM; in the test with UACC-62 melanoma, 83.1 µM; in the test with SK-MEL-28 melanoma, above 100 µM. The molecule further gave a total growth inhibition concentration (TGI) in the test on LOX IMVI melanoma above 100 µM.
For the molecule `N/N=C1/C2CN3CCN(C2)CC1(c1ccc([N+](=O)[O-])cc1)C3`, the TGI in the test with SF-268 CNS, with CAKI-1 renal, in the test on COLO 205 colon, in the test with UACC-257 melanoma, in the test with SNB-75 CNS and in the test with MDA-N was above 100 µM throughout. For the same molecule, the concentration for total growth inhibition (TGI) in the test with IGROV1 ovarian, in the test with RPMI-8226 leukemia, with OVCAR-8 ovarian, in the test with PC-3 prostate, with UACC-62 melanoma and with SK-MEL-28 melanoma was above 100 µM throughout. Also, the total growth inhibition concentration (TGI) in the test on LOX IMVI melanoma is above 100 µM.
For the molecule `CN(C)CCNC(=O)c1ccc(NCCCN(C)CCCNc2ccc3c(=O)n(CCN(C)C)c(=O)n4c5ccccc5c(=O)c2c34)c2c(=O)c3ccccc3[nH]c12`, the TGI in the test with SF-268 CNS was 0.326 µM; with CAKI-1 renal, 1.06 µM; with COLO 205 colon it was 0.353 µM; in the test with UACC-257 melanoma, 0.718 µM; with SNB-75 CNS, 0.0449 µM; with MDA-N, 0.199 µM. Further, the TGI in the test on IGROV1 ovarian is 1.16 µM; in the test with RPMI-8226 leukemia, 0.157 µM; in the test on OVCAR-8 ovarian it was 0.885 µM; in the test with PC-3 prostate, 0.249 µM; with UACC-62 melanoma, 0.239 µM; in the test with SK-MEL-28 melanoma, 1.34 µM. The molecule further registered a TGI in the test with LOX IMVI melanoma of 0.119 µM.
As to `O=C1C=CC(=O)C(CNc2ccc(C(=O)OC34CC5CC(CC(C5)C3)C4)cc2)=C1`, the TGI with SF-268 CNS stood at 17.3 µM; in the test on CAKI-1 renal, 2.71 µM; with COLO 205 colon, 6.81 µM; in the test with UACC-257 melanoma, 18.2 µM; with SNB-75 CNS, 18.1 µM; in the test on MDA-N, 19.2 µM. Moreover, the TGI in the test with IGROV1 ovarian is 4.86 µM; in the test with RPMI-8226 leukemia, 7.01 µM; with OVCAR-8 ovarian it was 56 µM; in the test on PC-3 prostate it was 22 µM; in the test on UACC-62 melanoma it was 16.5 µM; in the test with SK-MEL-28 melanoma it was 17.8 µM. The molecule further displayed a concentration for total growth inhibition (TGI) in the test with LOX IMVI melanoma of 15.2 µM.
With `Cc1ccc(C2=NOC(=O)[C@@H]3CCCC[C@@H]23)cc1`, the TGI with SF-268 CNS, with CAKI-1 renal, in the test on COLO 205 colon, in the test on UACC-257 melanoma, in the test on SNB-75 CNS and in the test on MDA-N was above 100 µM throughout. The TGI in the test with IGROV1 ovarian, in the test on RPMI-8226 leukemia, with OVCAR-8 ovarian, with PC-3 prostate, in the test on UACC-62 melanoma and in the test with SK-MEL-28 melanoma was above 100 µM in each case. Further, the total growth inhibition concentration (TGI) in the test on LOX IMVI melanoma was above 100 µM.
